Measurements reported in ChEMBL document CHEMBL3046142, “Cross resistance, genetic analysis and stability of resistance to buprofezin in cotton whitefly, Bemisia tabaci (Homoptera: Aleyrodidae)” (2012).

Legend:
Format in all cases: functional
Bemisia tabaci [1] = test: Insecticidal activity against Bemisia tabaci UNSEL G11 (sweet potato whitefly) from 11 generation buprofezin resistance assessed as mortality measured after 18 to 20 days
Bemisia tabaci [2] = test: Insecticidal activity against Bemisia tabaci (sweet potato whitefly) susceptible Lab-PK assessed as mortality measured after 18 to 20 days
Bemisia tabaci [3] = test: Insecticidal activity against Bemisia tabaci Bupro-SEL (sweet potato whitefly) male/Lab-PK female hybrid assessed as mortality measured after 18 to 20 days
Bemisia tabaci [4] = test: Insecticidal activity against Bemisia tabaci F1 (sweet potato whitefly) pooled assessed as mortality measured after 18 to 20 days
Bemisia tabaci [5] = test: Insecticidal activity against Bemisia tabaci (sweet potato whitefly) from one generation buprofezin resistance G1 assessed as mortality measured after 18 to 20 days
Bemisia tabaci [6] = test: Insecticidal activity against Bemisia tabaci Bupro-SEL (sweet potato whitefly) from 10 generation buprofezin resistance assessed as mortality measured after 18 to 20 days
Bemisia tabaci [7] = test: Insecticidal activity against Bemisia tabaci F1 (sweet potato whitefly) pooled/Bupro-SEL hybrid assessed as mortality measured after 18 to 20 days
Bemisia tabaci [8] = test: Insecticidal activity against Bemisia tabaci Bupro-SEL (sweet potato whitefly) from 20 generation buprofezin resistance assessed as mortality measured after 18 to 20 days
Bemisia tabaci [9] = test: Insecticidal activity against Bemisia tabaci Bupro-SEL (sweet potato whitefly) female/Lab-PK male hybrid assessed as mortality measured after 18 to 20 days

Compound | LC50 (Bemisia tabaci [1]) [ugAi/ml] | LC50 (Bemisia tabaci [2]) [ugAi/ml] | LC50 (Bemisia tabaci [3]) [ugAi/ml] | LC50 (Bemisia tabaci [4]) [ugAi/ml] | LC50 (Bemisia tabaci [5]) [ugAi/ml] | LC50 (Bemisia tabaci [6]) [ugAi/ml] | LC50 (Bemisia tabaci [7]) [ugAi/ml] | LC50 (Bemisia tabaci [8]) [ugAi/ml] | LC50 (Bemisia tabaci [9]) [ugAi/ml]
CC(C)N1C(=O)N(c2ccccc2)CS/C1=N\C(C)(C)C [BUPROFEZIN] | 0.25 | 0.2 | 4.41 | 4.86 | 1.41 | 1400 | 62.6 | 115.2 | 5.11
CCOC(=O)OC1=C(c2cc(C)ccc2C)C(=O)N[C@]12CC[C@@H](OC)CC2 [SPIROTETRAMAT] | 0.1 | 0.17 | – | – | 0.7 | 1.04 | – | 0.11 | –
CC(COc1ccc(Oc2ccccc2)cc1)Oc1ccccn1 (centres undefined) [PYRIPROXYFEN] | 0.52 | 0.6 | – | – | 1.81 | 51.54 | – | 1.63 | –
O=[N+]([O-])/N=C1\NCCN1Cc1ccc(Cl)nc1 [IMIDACLOPRID] | 0.2 | 0.09 | – | – | 1.29 | 2.18 | – | 0.17 | –
C/C(=N\C#N)N(C)Cc1ccc(Cl)nc1 [ACETAMIPRID] | 0.36 | 0.39 | – | – | 2.21 | 4.04 | – | 0.4 | –
